This is an account of results in patent US11291726B2 (KOREA INSTITUTE OF SCIENCE AND TECHNOLOGY, priority 2018, dated 2022).

Data set [1] in a line: Photothermal efficiency (solution temperature under laser irradiation). In kind it is physicochemical. To be noted: laser 808 nm, 1 W; followed by temperature decrease due to photodegradation. From the text: Such an increase of photothermal efficiency of the ICG-Fe NPs is thought to be due to fluorescence of ICG, which competitively acts on the photothermal reaction and is present within the nanoparticles in a fluorescence-quenched state.

Another data set relates to nude mice. Put plainly: Toxicity in animal models (blood liver levels, liver/kidney tissue staining). In kind it is in vivo. The conditions noted are these: 200 μL intravenously, male nude mice, two days later. The source says: Two days later, blood and liver/kidney tissues were collected and evaluated for toxicity.
Data set [2] has as its system HT-29 cells (human colon cancer) solid tumors. The data set can be described thus: Cancer cell accumulation in cancer disease model via fluorescence imaging. In kind it is in vivo. The conditions noted are these: HT-29 tumor on left thigh of nude mice, 200 μL intravenously.
Experimental: The model with a cancer disease was prepared by subcutaneous injection of 1×10^7 HT-29 cells (human colon cancer, Korean Cell Line Bank) on the left thigh of 5-week-old male nude mice (Orientbio Inc., Korea). After 2 weeks of cancer cell transplantation, solid tumors were confirmed to be formed, and then subsequent experiments were performed.

`CC1(C)C(/C=C/C=C/C=C/C=C2\N(CCCCS(=O)(=O)O)c3ccc4ccccc4c3C2(C)C)=[N+](CCCCS(=O)(=O)[O-])c2ccc3ccccc3c21` [ICG, indocyanine green]: the “temperature increase at the beginning of laser irradiation” value in data set [1] is “about 45 °C”. For the same compound, in the data set with nude mice, the “AST/ALT values (blood liver levels)” value is “normal levels” and the immunostained liver/kidney tissues result is “no abnormalities were found”. For the same compound, the “fluorescence at the cancer site (accumulation)” value in data set [2] is given as “did not show fluorescence at the cancer site”.
